Marks after values point to notes of the source that are not given here.
Columns and labels:
tail-withdrawal latency = test: Tail-flick latency test; format: in vivo, rats; details: for Latency (seconds) / Latency: compounds 5 mg/kg orally, naproxen 2.5 mg/kg orally, in DMSO, mean ± SE of six rats; for Potency (%): analgesic potency after 120 minutes compared with the reference drug naproxen
[1] = tested on: carrageenan-induced paw edema; test: Carrageenan-induced rat-paw-edema assay; format: in vivo, rats; details: for Potency (%): calculated compared to the reference drug naproxen; for Edema (%): compounds 5 mg/kg orally, naproxen 2.5 mg/kg orally, in DMSO, mean ± SE of six rats
tumor-bearing rats = details: cited from earlier work
gastric ulceration = details: naproxen 2.5 mg/kg orally, tested compounds 5 mg/g orally in DMSO
[2] = after 1 hour of induced inflammation
[3] = throughout the entire experiment

Row | SMILES | Latency (seconds) (tail-withdrawal latency; 30 minutes) | Latency (seconds) (tail-withdrawal latency; 60 minutes) | Latency (seconds) (tail-withdrawal latency; 120 minutes) | Potency (%) (tail-withdrawal latency) | Potency (%) ([1]; 1 hour) | Edema (%) ([1]; 1 hour) | Potency (%) ([1]; 2 hours) | Edema (%) ([1]; 2 hours) | Potency (%) ([1]; 3 hours) | Edema (%) ([1]; 3 hours) | Potency (%) ([1]; 4 hours) | Edema (%) ([1]; 4 hours) | anti-inflammatory activity (in words) [1, 2] | Latency (tail-withdrawal latency; 30 minutes) | anti-inflammatory potency relative to the reference drug ([1]; compared to naproxen) | anti-inflammatory activity relative to naproxen ([1]; entire experiment, after 4 hours) | anti-inflammatory activity (in words) [1, 3] | anti-inflammatory potency (in words) ([1]; after 2, 3, and 4 hours of induced inflammation, compared to the reference drug) | reduction of rate of tumor growth (tumor-bearing rats) | ulcerogenic effect, macroscopic examination of the stomach (gastric ulceration)
1 | COc1ccc2cc(C(C)C(=O)NC(=S)NC(C)C(=O)O)ccc2c1 (centres unmarked) [Compound 5, 2-(3-(2-(6-methoxynaphthalen-2-yl)propanoyl)thioureido)propanoic acid] | 3.9±0.3^b seconds | 3.9±0.4^b seconds | 3.9±0.2^b seconds | 55.7% | 102.5% | 21.2±1.66% | 64.6% | 30.4±1.19% | 71.1% | 33.7±1.68% | 71.7% | 32.8±1.40% | highest anti-inflammatory activity | – | – | – | – | – | – | –
2 | COc1ccc2cc(C(C)C(=O)NC(=S)NCCC(=O)O)ccc2c1 (centres unmarked) [Compound 6, 3-(3-(2-(6-methoxynaphthalen-2-yl)propanoyl)thioureido)propanoic acid] | – | 4.0±0.2^b seconds | 4.2±0.3^b seconds | 60.0% | 67.6% | 24.6±2.39% | 60.0% | 31.4±2.46% | 64.4% | 35.1±2.99% | 60.3% | 35.3±3.06% | moderate potency | 4.6 ± 0.3 s | – | – | – | – | – | –
3 | COc1ccc2cc(C(C)C(=O)NC(=S)NC(CO)C(=O)O)ccc2c1 (centres unmarked) [Compound 7, 3-hydroxy-2-(3-(2-(6-methoxynaphthalen-2-yl)propanoyl)thioureido)propanoic acid] | 3.9±0.4^b seconds | 3.6±0.3^b seconds | 4.1±0.2^b seconds | 58.6% | 73.9% | 24.0±1.90% | 73.3% | 28.4±0.78% | 89.8% | 29.7±0.95% | 85.2% | 30.0±0.95% | moderate potency | – | – | – | – | – | – | –
4 | COc1ccc2cc(C(C)C(=O)NC(=S)NC(Cc3ccc(O)cc3)C(=O)O)ccc2c1 (centres unmarked) [Compound 8, 3-(4-hydroxyphenyl)-2-(3-(2-(6-methoxynaphthalen-2-yl)propanoyl)thioureido)propanoic acid] | 5.0±0.2^a seconds | 4.9±0.3^a,b seconds | 5.9±0.5^a seconds | 84.3% | 138.4% | 17.6±1.55% | 111.4% | 19.9±1.50% | 129.2% | 21.5±1.42% | 131.2% | 20.0±2.02% | highest anti-inflammatory activity | – | about 1.4 times | 1.3 times | highest anti-inflammatory activity | – | – | –
5 | COC(=O)C(C)NC(=S)NC(=O)C(C)c1ccc2cc(OC)ccc2c1 (centres unmarked) [Compound 9, Methyl 2-(3-(2-(6-methoxynaphthalen-2-yl)propanoyl)thioureido)propanoate] | 3.7±0.2^b seconds | 3.8±0.3^b seconds | 4.0±0.3^b seconds | 57.1% | 4.7% | 30.8±1.09% | 11.6% | 42.2±3.50% | 21.1% | 44.2±3.94% | 32.3% | 41.3±2.99% | – | – | – | – | – | – | – | –
6 | COC(=O)CCNC(=S)NC(=O)C(C)c1ccc2cc(OC)ccc2c1 (centres unmarked) [Compound 10, Methyl 3-(3-(2-(6-methoxynaphthalen-2-yl)propanoyl)thioureido)propanoate] | 3.1±0.3^b seconds | 4.6±0.4^b seconds | 5.7±0.2^a,b seconds | 81.4% | 6.3% | 30.7±2.38% | 9.8% | 42.6±2.45% | 10.4% | 46.4±2.61% | 15.9% | 44.9±3.34% | – | – | – | – | – | – | – | –
7 | COC(=O)C(CO)NC(=S)NC(=O)C(C)c1ccc2cc(OC)ccc2c1 (centres unmarked) [Compound 11, Methyl 3-hydroxy-2-(3-(2-(6-methoxynaphthalen-2-yl)propanoyl)thioureido)propanoate] | 4.8±0.5^a seconds | 4.8±0.4^b seconds | 4.8±0.2^a,b seconds | 68.6% | 66.7% | 24.7±1.79% | 62.2% | 30.9±2.05% | 32.5% | 41.8±2.81% | 32.1% | 41.4±2.59% | moderate potency | – | – | – | – | – | – | –
8 | COc1ccc2cc(C(C)C(=O)NC(=S)NCCC(=O)NN)ccc2c1 (centres unmarked) [Compound 14, N-(3-hydrazinyl-3-oxopropylcarbamothioyl)-2-(6-methoxynaphthalen-2-yl)propanamide] | 6.1±0.4^a seconds | 5.6±0.2^a seconds | 5.7±0.3^a,b seconds | 81.4% | 40.3% | 27.3±0.88% | 32.9% | 37.4±3.58% | 44.9% | 39.2±2.42% | 26.5% | 42.6±1.61% | – | 6.1 ± 0.4 s | – | – | lowest anti-inflammatory potency | – | – | –
9 | COc1ccc2cc(C(C)C(=O)NC(=S)NC(CO)C(=O)NN)ccc2c1 (centres unmarked) [Compound 15, N-(1-hydrazinyl-3-hydroxy–1-oxopropan-2-yl-carbamothioyl)-2-(6-methoxynaphthalen-2-yl)propanamide] | – | 3.9±0.2^b seconds | 4.5±0.3^b seconds | 64.3% | 120.0% | 19.5±0.50% | 96.8% | 23.2±2.05% | 88.2% | 30.1±2.58% | 80.5% | 31.0±1.68% | highest anti-inflammatory activity | 4.2 ± 0.4 s | – | – | – | moderate potency | – | –
10 | COc1ccc2cc([C@H](C)C(=O)O)ccc2c1 [Naproxen, reference compound] | 5.3±0.3^a seconds | 6.2±0.4^a seconds | 7.0±0.4^a seconds | 100% | 100% | 21.5±2.03% | 100% | 22.5±1.22% | 100% | 27.6±0.85% | 100% | 26.7±1.90% | – | – | – | – | – | – | 58% | moderate gastric ulceration

From PMC6540076 (Drug Design, Development and Therapy, 2019)
